Laboratory results reported in patent US6720142B1, “Method of determining evolutionary potential of mutant resistance genes and use thereof to screen for drug efficacy” (priority 1999, dated 2004).
Values after ≈ are worked out from the molar mass of the structure shown.

Legend:
[1] = tested on: host cells carrying PAmpC0-307 (AmpC L290 to R); assay: MIC test, single-mutation plasmid PAmpC0-307; assay type: cell-based, E. coli; conditions: for MIC: PAmpC0-307, T869 to G, L290 to R
Procedure: (§1) Basically, a MIC determination is carried out by preparing serial dilutions of drugs in a micro-well plate and measuring host cell growth within those wells. The MIC for a particular set of host cells containing a mutant resistance gene is determined by examining the wells to locate the lowest concentration of drug which inhibited cell growth. This is capable of discriminating generally between those host cells containing mutant resistance genes conferring different degrees of resistance against the particular drug.
(§2) Serial dilutions were prepared by first determining the volume of drug solution to be added to the first well in each row to achieve the desired concentration of drug in a total volume of 1 ml. The MIC was determined for the following drugs: ampicillin, pipericillin, temocillin, cephalothin, cefuroxime, cefotaxime, ceftazidime, cefepime, imipenem, meropenem, and aztreonam. To the first well in each row 1 ml of the diluted cell suspension was added, and to all remaining wells per row 0.5 ml of the diluted cell suspension was added. For each row, the predetermined volume of a drug solution was added to the first well per row, mixed well, and then 0.5 ml of the mixed solution was transferred to the next well, and so on until the serial dilutions were completed. From the last well in each row, 0.5 ml was removed so that all well contained 0.5 ml of the drug-containing culture. Plates were sealed with BreatheEasy film (Diversified Biotech, Boston, Mass.) and maintained overnight at 37° C. with shaking. […] The MICs, in μg/ml, for each of the above-identified drugs was as follows: ampicillin, >1024; pipericillin, >1024; temocillin, 32: cephalothin, 1024; cefuroxime, 512; cefotaxime, 8; ceftazidime, 64; cefepime, 1; imipenem, 0.25; meropenem, 0.03125; and aztreonam, 16.
(§3) To determine the phenotypic effects of each of the amino acid substitutions, the A907C, A587G, A663G, T869G, and A884G mutations are being individually introduced into pAmpC0 by site-directed mutagenesis. It is expected that the A907C mutation will result in MICs that are identical to pAmpC13A. The A587G, A663G, and As84G mutations will also be introduced individually into AmpC13 to determine whether the combination of any of those mutations with A907C will result in increased resistance levels.
(§4) MICs of three of the plasmids containing the wildtype AmpC gene into which the above mutations have been introduced have been determined, as shown in Table 2 below.

[2] = tested on: E. coli carrying pAmpC13A (mutant ampC, S303R); assay: MIC test, mutant plasmid pAmpC13A; assay type: cell-based
Procedure: (§5) Serial dilutions were prepared by first determining the volume of drug solution to be added to the first well in each row to achieve the desired concentration of drug in a total volume of 1 ml. The MIC was determined for the following drugs: ampicillin, pipericillin, temocillin, cephalothin, cefuroxime, cefotaxime, ceftazidime, cefepime, imipenem, meropenem, and aztreonam. To the first well in each row 1 ml of the diluted cell suspension was added, and to all remaining wells per row 0.5 ml of the diluted cell suspension was added. For each row, the predetermined volume of a drug solution was added to the first well per row, mixed well, and then 0.5 ml of the mixed solution was transferred to the next well, and so on until the serial dilutions were completed. From the last well in each row, 0.5 ml was removed so that all well contained 0.5 ml of the drug-containing culture. Plates were sealed with BreatheEasy film (Diversified Biotech, Boston, Mass.) and maintained overnight at 37° C. with shaking.
(§6) Plasmids were prepared from those isolates and were transformed into E. coli strain JM109.

[3] = tested on: host cells carrying pAmpC0-305 (AmpC T121 to S); assay: MIC test, single-mutation plasmid pAmpC0-305; assay type: cell-based, E. coli; conditions: for MIC: pAmpC0-305, A663 to G, T121 to S
Procedure: as §1, §2, §3, §4

[4] = tested on: E. coli JM109 carrying the plasmid vector pACSE without an ampC gene; assay: MIC test, plasmid vector pACSE without an ampC gene; assay type: cell-based; conditions: pACSE (vector, no ampC)
Procedure: as §1, §2
Plasmids were prepared from those isolates and were transformed into E. coli strain JM109. MICs conferred by each of those plasmids was determined as in Example 5.
as §4

[5] = tested on: E. coli carrying pAmpC21B (mutant ampC); assay: MIC test, mutant plasmid pAmpC21B; assay type: cell-based; conditions: for clinical resistance conferred by pAmpC21B: after two cycles of mutagenesis and selection
Procedure: as §5, §6

[6] = tested on: E. coli JM109 carrying pAmpC0 (wildtype E. coli K12 ampC gene); assay: MIC test, plasmid pAmpC0 (wildtype ampC gene); assay type: cell-based; conditions: for MIC: pAmpC0 (wildtype ampC); for resistance conferred by plasmid pAmpC0: wildtype ampC gene, Table 1 boxed cells
Procedure: as §1
All experiments utilizing ampicillin resistance will be directed toward the cloned and regulated ampC gene (or mutant ampC gene) in such a way that the regulation, i.e., the amount of enzyme produced per cell, will be held constant throughout the experiments and all of the “improvement” in resistance will come from improvement in β-lactamase activity.
as §2, with “16. […]” for “16.”

[7] = tested on: host cells carrying PAmpC0-308 (AmpC N295 to S); assay: MIC test, single-mutation plasmid PAmpC0-308; assay type: cell-based, E. coli; conditions: A644 to G
[8] = tested on: E. coli DH5α-E containing multiply mutated ampC; assay: MIC of population of E. coli host cells containing multiply mutated (DNA-shuffled) ampC; assay type: cell-based; conditions: Escherichia coli; lowest drug concentration that completely inhibited growth; overnight at 37° C., MH-I broth, 48-well plates, shuffled ampC library in DH5α-E
Procedure: E. coli host cells prepared according to Example 4 were diluted into 100 ml MuellerHinton-IPTG (MH-T) broth. Duplicate samples of 10^0, 10^1, and 10^2 dilutions were spread onto L(tet) plates to estimate total transformants, and duplicate 10^0 and 10^1 samples were spread onto MH-I(ampicillin) plates to estimate the number of Amp^R transformants. 10 mg ampicillin was added to each culture using 1 ml of a 10 mg/ml ampicillin solution. The culture was allowed to stand overnight at 37° C. without shaking.
Next, the minimum inhibitory concentration of a number of drug was determined. An estimate of viable cells was calculated by assuming that an A600 of 1.0 is equivalent to 1.9×10^8 per ml for DH5α-E cells. A sample of the overnight culture was diluted into 70 ml of MH-I so that the number of cells per ml 10^5 per ml. The resulting suspension was used to determine MIC in 48-well microtiter plates.
as §2

[9] = tested on: E. coli carrying pAmpC41A (mutant ampC); assay: MIC test, mutant plasmid pAmpC41A; assay type: cell-based
Procedure: as §5, with “shaking. […]” for “shaking.”
Plasmids were prepared from those isolates and were transformed into E. coli strain JM109. MICs conferred by each of those plasmids was determined as in Example 5. […]

CC1(C)S[C@@H]2[C@H](NC(=O)[C@H](N)c3ccccc3)C(=O)N2[C@H]1C(=O)O [Ampicillin, ampicillin]
MIC [1]: 128 µg/mL | clinical resistance conferred by pAmpC13A [2]: clinical resistance | improved resistance conferred by pAmpC13A [2]: improved resistance | MIC [3]: 128 µg/mL | MIC [4]: 2 µg/mL (≈ 5.72 µM) | clinical resistance conferred by pAmpC21B [5]: clinical resistance | MIC [6]: 128 µg/mL (≈ 366 µM) | resistance conferred by plasmid pAmpC0 [6]: confers resistance | MIC [7]: 64 µg/mL (≈ 183 µM) | MIC [8]: > 1020 µg/mL

C[C@H]1[C@H](NC(=O)/C(=N\OC(C)(C)C(=O)O)c2csc(N)n2)C(=O)N1S(=O)(=O)O [Aztreonam, aztreonam]
MIC [1]: 4 µg/mL | improved resistance conferred by pAmpC13A [2]: improved resistance | MIC [3]: 4 µg/mL | MIC [4]: 0.5 µg/mL (≈ 1.15 µM) | MIC [6]: 4 µg/mL (≈ 9.19 µM) | resistance conferred by plasmid pAmpC0 [6]: not | MIC [7]: 4 µg/mL (≈ 9.19 µM) | MIC [8]: 16 µg/mL

CO/N=C(\C(=O)N[C@@H]1C(=O)N2C(C(=O)[O-])=C(C[N+]3(C)CCCC3)CS[C@H]12)c1csc(N)n1 [Cefepime, cefepime]
MIC [1]: 0.0625 µg/mL | improved resistance conferred by pAmpC13A [2]: improved resistance | MIC [3]: 0.0625 µg/mL | MIC [4]: 0.0312 µg/mL (≈ 0.065 µM) | increase in resistance ([5]; pAmpC21B, second line): 2 fold | MIC [6]: 0.0625 µg/mL (≈ 0.13 µM) | resistance conferred by plasmid pAmpC0 [6]: not | MIC [7]: 0.0625 µg/mL (≈ 0.13 µM) | MIC [8]: 1 µg/mL | improvement in resistance ([9]; pAmpC41A, first line): 128 fold

CO/N=C(\C(=O)N[C@@H]1C(=O)N2C(C(=O)O)=C(COC(C)=O)CS[C@H]12)c1csc(N)n1 [Cefotaxime, cefotaxime]
MIC [1]: 0.5 µg/mL | improved resistance conferred by pAmpC13A [2]: improved resistance | MIC [3]: 1 µg/mL | MIC [4]: 0.0625 µg/mL (≈ 0.137 µM) | MIC [6]: 1 µg/mL (≈ 2.2 µM) | resistance conferred by plasmid pAmpC0 [6]: not | MIC [7]: 0.5 µg/mL (≈ 1.1 µM) | MIC [8]: 8 µg/mL

CC(C)(O/N=C(\C(=O)N[C@@H]1C(=O)N2C(C(=O)[O-])=C(C[n+]3ccccc3)CS[C@H]12)c1csc(N)n1)C(=O)O [Ceftazidime, ceftazidime]
MIC [1]: 1 µg/mL | clinical resistance conferred by pAmpC13A [2]: clinical resistance | improved resistance conferred by pAmpC13A [2]: improved resistance | MIC [3]: 2 µg/mL | MIC [4]: 0.5 µg/mL (≈ 0.915 µM) | clinical resistance conferred by pAmpC21B [5]: clinical resistance | MIC [6]: 2 µg/mL (≈ 3.66 µM) | resistance conferred by plasmid pAmpC0 [6]: not | MIC [7]: 2 µg/mL (≈ 3.66 µM) | MIC [8]: 64 µg/mL

CO/N=C(\C(=O)N[C@@H]1C(=O)N2C(C(=O)O)=C(COC(N)=O)CS[C@H]12)c1ccco1 [Cefuroxime, cefuroxime]
MIC [1]: 32 µg/mL | clinical resistance conferred by pAmpC13A [2]: clinical resistance | MIC [3]: 32 µg/mL | MIC [4]: 16 µg/mL (≈ 37.7 µM) | clinical resistance conferred by pAmpC21B [5]: clinical resistance | MIC [6]: 64 µg/mL (≈ 151 µM) | resistance conferred by plasmid pAmpC0 [6]: confers resistance | MIC [7]: 32 µg/mL (≈ 75.4 µM) | MIC [8]: 512 µg/mL

CC(=O)OCC1=C(C(=O)O)N2C(=O)[C@@H](NC(=O)Cc3cccs3)[C@H]2SC1 [Cephalothin, cephalothin]
MIC [1]: 512 µg/mL | clinical resistance conferred by pAmpC13A [2]: clinical resistance | MIC [3]: 512 µg/mL | MIC [4]: 16 µg/mL (≈ 40.4 µM) | clinical resistance conferred by pAmpC21B [5]: clinical resistance | MIC [6]: 1020 µg/mL (≈ 2580 µM) | resistance conferred by plasmid pAmpC0 [6]: confers resistance | MIC [7]: 512 µg/mL (≈ 1290 µM) | MIC [8]: 1020 µg/mL

C[C@@H](O)[C@H]1C(=O)N2C(C(=O)O)=C(SCCN=CN)C[C@H]12 [Imipenem, imipenem]
MIC [1]: 0.125 µg/mL | MIC [3]: 0.125 µg/mL | MIC [4]: 0.25 µg/mL (≈ 0.835 µM) | MIC [6]: 0.25 µg/mL (≈ 0.835 µM) | MIC [7]: 0.125 µg/mL (≈ 0.418 µM) | MIC [8]: 0.25 µg/mL

C[C@@H](O)[C@H]1C(=O)N2C(C(=O)O)=C(S[C@@H]3CN[C@H](C(=O)N(C)C)C3)[C@H](C)[C@H]12 [Meropenem, meropenem]
change in resistance by T869G (L290R) mutation vs wildtype pAmpC0 [1]: significantly increase resistance | MIC [1]: 0.0312 µg/mL | improved resistance conferred by pAmpC13A [2]: improved resistance | change in resistance by A663G (T121S) mutation vs wildtype pAmpC0 [3]: significantly increase resistance | MIC [3]: 0.0156 µg/mL | MIC [4]: 0.00195 µg/mL (≈ 0.00509 µM) | resistance conferred by plasmid pAmpC0 [6]: not | MIC [7]: 0.0156 µg/mL (≈ 0.0407 µM) | MIC [8]: 0.0312 µg/mL

CCN1CCN(C(=O)N[C@@H](C(=O)N[C@@H]2C(=O)N3[C@@H]2SC(C)(C)[C@@H]3C(=O)O)c2ccccc2)C(=O)C1=O [Pipericillin, pipericillin]
MIC [1]: 16 µg/mL | clinical resistance conferred by pAmpC13A [2]: clinical resistance | improved resistance conferred by pAmpC13A [2]: improved resistance | MIC [3]: 16 µg/mL | MIC [4]: 4 µg/mL (≈ 7.73 µM) | clinical resistance conferred by pAmpC21B [5]: clinical resistance | MIC [6]: 16 µg/mL (≈ 30.9 µM) | resistance conferred by plasmid pAmpC0 [6]: not | MIC [7]: 4 µg/mL (≈ 7.73 µM) | improvement in resistance conferred by pAmpC41A ([9]; after subsequent rounds of mutagenesis and selection, relative to pAmpC13A): slight improvement in resistance

CO[C@@]1(NC(=O)C(C(=O)O)c2ccsc2)C(=O)N2[C@@H](C(=O)O)C(C)(C)S[C@@H]21 (some centres unmarked) [Temocillin, temocillin]
MIC [1]: 8 µg/mL | clinical resistance conferred by pAmpC13A [2]: clinical resistance | improved resistance conferred by pAmpC13A [2]: improved resistance | MIC [3]: 16 µg/mL | MIC [4]: 16 µg/mL (≈ 38.6 µM) | MIC [6]: 16 µg/mL (≈ 38.6 µM) | resistance conferred by plasmid pAmpC0 [6]: not | MIC [7]: 8 µg/mL (≈ 19.3 µM) | MIC [8]: 32 µg/mL
